Patent EP0089860A1, “Levogyrous isomer of mequitazine, process for its preparation and pharmaceutical preparations containing it” (priority 1982, dated 1983)

Test system: souris
Assay: Acute toxicity in the mouse
Assay type: in vivo
Conditions: comparison of composé (Ia) and Méquitazine

## c1ccc2c(c1)Sc1ccccc1N2CC1CN2CCC1CC2 (racemic) [Méquitazine racémique, [(aza-1 bicyclo(2,2,2)octyl-3)méthyl]-10 10H-phénothiazine]
  toxicité aiguë: sensiblement identiques

## c1ccc2c(c1)Sc1ccccc1N2C[C@@H]1CN2CCC1CC2 [Composé (Ia), [(aza-1 bicyclo(2,2,2)octyl-3 (S))méthyl]-10 10H-phénothiazine]
  toxicité aiguë: sensiblement identiques
